Source: patent US20100016401A1, “3-AZA-BICYCLO[3.1.0]HEXANE DERIVATIVES” (Actelion Phamaceuticals Ltd., priority 2006, published 2010)

Key:
human orexin-2 receptor = biological target: T1, human orexin-2 receptor (Homo sapiens, UniProt O43614); assay: Intracellular calcium measurements (FLIPR), orexin receptor antagonistic activity, OX2; format: cell-based; settings: CHO cells expressing human orexin-2 receptor, 10 nM orexin-A as agonist
T1 construct: expressed in transfected cells; host or cells: CHO (Chinese hamster ovary) cells, grown under G418 selection
T1 sequence (O43614 1-444): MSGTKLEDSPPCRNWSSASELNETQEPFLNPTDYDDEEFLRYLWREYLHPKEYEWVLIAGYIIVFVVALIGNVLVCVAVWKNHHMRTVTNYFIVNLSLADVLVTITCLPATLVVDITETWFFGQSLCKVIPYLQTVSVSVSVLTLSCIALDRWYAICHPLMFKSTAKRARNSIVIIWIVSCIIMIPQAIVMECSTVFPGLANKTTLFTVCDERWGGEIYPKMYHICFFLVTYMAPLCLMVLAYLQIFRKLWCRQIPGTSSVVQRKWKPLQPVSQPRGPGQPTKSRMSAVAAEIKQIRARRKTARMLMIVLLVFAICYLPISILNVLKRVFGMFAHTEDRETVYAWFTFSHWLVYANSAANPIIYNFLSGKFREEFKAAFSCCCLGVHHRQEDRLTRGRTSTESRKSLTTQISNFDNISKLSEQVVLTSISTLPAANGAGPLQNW
Description: (§1) The orexin receptor antagonistic activity of the compounds of formula (I) is determined in accordance with the following experimental method.
(§2) Intracellular Calcium Measurements:
(§3) Chinese hamster ovary (CHO) cells expressing the human orexin-1 receptor and the human orexin-2 receptor, respectively, are grown in culture medium (Ham F-12 with L-Glutamine) containing 300 μg/ml G418, 100 U/ml penicillin, 100 μg/ml streptomycin and 10% inactivated fetal calf serum (FCS). The cells are seeded at 80,000 cells/well into 96-well black clear bottom sterile plates (Costar) which have been precoated with 1% gelatine in Hanks' Balanced Salt Solution (HBSS). All reagents are from Gibco BRL. The seeded plates are incubated overnight at 37° C. in 5% CO2.
(§4) Human orexin-A as an agonist is prepared as 1 mM stock solution in MeOH: water (1:1), diluted in HBSS containing 0.1% bovine serum albumin (BSA) and 2 mM HEPES for use in the assay at a final concentration of 10 nM.
(§5) Antagonists are prepared as 10 mM stock solution in DMSO, then diluted in 96-well plates, first in DMSO, then in HBSS containing 0.1% bovine serum albumin (BSA) and 2 mM HEPES.
(§6) On the day of the assay, 100 μl of loading medium (HBSS containing 1% FCS, 2 mM HEPES, 5 mM probenecid (Sigma) and 3 μM of the fluorescent calcium indicator fluo-3 AM (1 mM stock solution in DMSO with 10% pluronic acid) (Molecular Probes) is added to each well.
(§7) The 96-well plates are incubated for 60 min at 37° C. in 5% CO2. The loading solution is then aspirated and cells are washed 3 times with 200 μl HBSS containing 2.5 mM probenecid, 0.1% BSA, 2 mM HEPES. 100 μl of that same buffer is left in each well.
(§8) Within the Fluorescent Imaging Plate Reader (FLIPR, Molecular Devices), antagonists are added to the plate in a volume of 50 μl, incubated for 20 min and finally 100 μl of agonist is added. Fluorescence is measured for each well at 1 second intervals, and the height of each fluorescence peak is compared to the height of the fluorescence peak induced by 10 nM orexin-A with buffer in place of antagonist.

human orexin-1 receptor = biological target: T2, human orexin-1 receptor (Homo sapiens, UniProt O43613); assay: Intracellular calcium measurements (FLIPR), orexin receptor antagonistic activity, OX1; format: cell-based; settings: CHO cells expressing human orexin-1 receptor, 10 nM orexin-A as agonist
T2 construct: expressed in transfected cells; host or cells: CHO (Chinese hamster ovary) cells, grown under G418 selection
T2 sequence (O43613 1-425): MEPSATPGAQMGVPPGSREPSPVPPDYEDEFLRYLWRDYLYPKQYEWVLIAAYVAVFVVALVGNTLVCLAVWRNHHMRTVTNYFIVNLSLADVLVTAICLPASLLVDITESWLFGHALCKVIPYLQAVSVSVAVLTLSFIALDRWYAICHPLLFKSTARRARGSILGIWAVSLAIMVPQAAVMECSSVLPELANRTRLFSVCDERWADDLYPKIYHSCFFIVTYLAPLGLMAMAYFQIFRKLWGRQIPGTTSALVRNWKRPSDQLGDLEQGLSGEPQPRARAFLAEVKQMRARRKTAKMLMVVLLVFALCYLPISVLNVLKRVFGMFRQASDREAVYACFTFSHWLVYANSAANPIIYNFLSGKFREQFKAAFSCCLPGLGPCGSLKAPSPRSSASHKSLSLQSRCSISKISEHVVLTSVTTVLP
Description: as §1, §2, §3, §4, §5, §6, §7, §8

| IC50 (human orexin-2 receptor) | IC50 (human orexin-1 receptor) | SMILES |
| --- | --- | --- |
| 17 nM | 19 nM | Cc1cccc(-c2sc(CCCO)nc2C(=O)N2C[C@H]3C[C@H]3[C@H]2CNC(=O)c2c(C)nc3sccn23)c1 (relative stereo) [Example 389, 6-Methyl-imidazo[2,1-b]thiazole-5-carboxylic acid {(1R*,2S*,5S*)-3-[2-(3-hydroxy-propyl)-5-m-tolyl-thiazole4-carbonyl]-3-aza-bicyclo[3.1.0]hex-2-ylmethyl}-amide] |
| 40 nM | 346 nM | Cc1ccc(C(=O)N2C[C@H]3C[C@H]3[C@H]2CNC(=O)c2cccc3c2OCC3)c(-c2cccc(F)c2)c1 [Compound 325] |
| 194 nM | 110 nM | Cc1ccc(C(=O)N2C[C@H]3C[C@H]3[C@H]2CNC(=O)c2cccc3c2OCCO3)c(-c2ccc3c(c2)OCCO3)c1 [Compound 350] |
| 158 nM | 194 nM | Cc1csc(-c2c(C)cccc2C(=O)N2C[C@H]3C[C@H]3[C@H]2CNC(=O)c2cccc3c2OCCO3)c1 [Compound 376] |
